Reference: the supplement of paper PMC10307832

Tests used:
Assay in all cases: relative viability (nuclei count vs DMSO), 5 days (fraction); higher = more cells survive
[1] = system: SW 900
Procedure, shortened: (§1)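 Relative viability divides the nuclei count in treated wells by that in vehicle wells. Lung cancer cell lines were seeded in 1536-well plates, dosed by pin tool the next day, and fixed and stained after 5 days in one step with final 0.05% Triton X-100, 1% formaldehyde and 1 ug/ml Hoechst. Dosing was a single drug or a fixed anchor-drug dose plus five library-drug doses (not always all listed) in √10 steps, and values are medians of duplicate plates imaged at 4×.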

[2] = system: H3255
Procedure, shortened: as §1

[3] = system: LXF-289
Procedure, shortened: as §1

[4] = system: NCI-H441
Procedure, shortened: as §1

[5] = system: NCI-H1734
Procedure, shortened: as §1

[6] = system: ChaGo-K-1
Procedure, shortened: as §1

[7] = system: NCI-H522
Procedure, shortened: as §1

[8] = system: NCI-H2170
Procedure, shortened: as §1

[9] = system: CAL-12T
Procedure, shortened: as §1

[10] = system: HOP-62
Procedure, shortened: as §1

[11] = system: NCI-H647
Procedure, shortened: as §1

[12] = system: LK-2
Procedure, shortened: as §1

[13] = system: NCI-H322M
Procedure, shortened: as §1

[14] = system: NCI-H2087
Procedure, shortened: as §1

[15] = system: NCI-H1755
Procedure, shortened: as §1

[16] = system: ABC-1
Procedure, shortened: as §1

[17] = system: NCI-H2009
Procedure, shortened: as §1

[18] = system: EMC-BAC-2
Procedure, shortened: as §1

[19] = system: PC-14
Procedure, shortened: as §1

[20] = system: 201T
Procedure, shortened: as §1

[21] = system: NCI-H3122
Procedure, shortened: as §1

[22] = system: NCI-H2126
Procedure, shortened: as §1

[23] = system: NCI-H1651
Procedure, shortened: as §1

CCCCCCCCCCCC1=C(O)C(=O)C=C(O)C1=O [Embelin] + CC(=O)c1c(C)c2cnc(Nc3ccc(N4CCNCC4)cn3)nc2n(C2CCCC2)c1=O [Palbociclib] (partner 0.5 µM)
relative viability ([1]; first compound 0.08 µM): 0.644
relative viability ([1]; first compound 0.8 µM): 0.576
relative viability ([1]; first compound 2.53 µM): 0.668
relative viability ([1]; first compound 8 µM): 0.549
relative viability ([2]; first compound 0.08 µM): 0.324
relative viability ([2]; first compound 0.8 µM): 0.347
relative viability ([2]; first compound 2.53 µM): 0.328
relative viability ([2]; first compound 8 µM): 0.295
relative viability ([3]; first compound 0.08 µM): 0.594
relative viability ([3]; first compound 0.8 µM): 0.59
relative viability ([3]; first compound 2.53 µM): 0.649
relative viability ([3]; first compound 8 µM): 0.613
relative viability ([4]; first compound 0.08 µM): 0.217
relative viability ([4]; first compound 0.8 µM): 0.221
relative viability ([4]; first compound 2.53 µM): 0.193
relative viability ([4]; first compound 8 µM): 0.195
relative viability ([5]; first compound 0.08 µM): 0.347
relative viability ([5]; first compound 0.8 µM): 0.349
relative viability ([5]; first compound 2.53 µM): 0.392
relative viability ([5]; first compound 8 µM): 0.346
relative viability ([6]; first compound 0.08 µM): 0.911
relative viability ([6]; first compound 0.8 µM): 1.01
relative viability ([6]; first compound 2.53 µM): 1.01
relative viability ([6]; first compound 8 µM): 0.981
relative viability ([7]; first compound 0.08 µM): 1.09
relative viability ([7]; first compound 0.8 µM): 1.21
relative viability ([7]; first compound 2.53 µM): 1.01
relative viability ([7]; first compound 8 µM): 0.983
relative viability ([8]; first compound 0.08 µM): 0.407
relative viability ([8]; first compound 0.8 µM): 0.418
relative viability ([8]; first compound 2.53 µM): 0.516
relative viability ([8]; first compound 8 µM): 0.382
relative viability ([9]; first compound 0.08 µM): 0.483
relative viability ([9]; first compound 0.8 µM): 0.538
relative viability ([9]; first compound 2.53 µM): 0.331
relative viability ([9]; first compound 8 µM): 0.553
relative viability ([10]; first compound 0.08 µM): 0.433
relative viability ([10]; first compound 0.8 µM): 0.489
relative viability ([10]; first compound 2.53 µM): 0.451
relative viability ([10]; first compound 8 µM): 0.392
relative viability ([11]; first compound 0.08 µM): 0.405
relative viability ([11]; first compound 0.8 µM): 0.448
relative viability ([11]; first compound 2.53 µM): 0.528
relative viability ([11]; first compound 8 µM): 0.38
relative viability ([12]; first compound 0.08 µM): 0.647
relative viability ([12]; first compound 0.8 µM): 0.753
relative viability ([12]; first compound 2.53 µM): 0.806
relative viability ([12]; first compound 8 µM): 0.702
relative viability ([13]; first compound 0.08 µM): 0.456
relative viability ([13]; first compound 0.8 µM): 0.528
relative viability ([13]; first compound 2.53 µM): 0.493
relative viability ([13]; first compound 8 µM): 0.512
relative viability ([14]; first compound 0.08 µM): 0.236
relative viability ([14]; first compound 0.8 µM): 0.227
relative viability ([14]; first compound 2.53 µM): 0.266
relative viability ([14]; first compound 8 µM): 0.248
relative viability ([15]; first compound 0.08 µM): 0.471
relative viability ([15]; first compound 0.8 µM): 0.483
relative viability ([15]; first compound 2.53 µM): 0.376
relative viability ([15]; first compound 8 µM): 0.427
relative viability ([16]; first compound 0.08 µM): 0.752
relative viability ([16]; first compound 0.8 µM): 0.664
relative viability ([16]; first compound 2.53 µM): 0.733
relative viability ([16]; first compound 8 µM): 0.72
relative viability ([17]; first compound 0.08 µM): 0.223
relative viability ([17]; first compound 0.8 µM): 0.277
relative viability ([17]; first compound 2.53 µM): 0.208
relative viability ([17]; first compound 8 µM): 0.186
relative viability ([18]; first compound 0.08 µM): 0.511
relative viability ([18]; first compound 0.8 µM): 0.547
relative viability ([18]; first compound 2.53 µM): 0.536
relative viability ([18]; first compound 8 µM): 0.485
relative viability ([19]; first compound 0.08 µM): 0.548
relative viability ([19]; first compound 0.8 µM): 0.597
relative viability ([19]; first compound 2.53 µM): 0.819
relative viability ([19]; first compound 8 µM): 0.569
relative viability ([20]; first compound 0.08 µM): 0.375
relative viability ([20]; first compound 0.8 µM): 0.377
relative viability ([20]; first compound 2.53 µM): 0.391
relative viability ([20]; first compound 8 µM): 0.353
relative viability ([21]; first compound 0.08 µM): 0.18
relative viability ([21]; first compound 0.8 µM): 0.236
relative viability ([21]; first compound 2.53 µM): 0.175
relative viability ([21]; first compound 8 µM): 0.186
relative viability ([22]; first compound 0.08 µM): 0.342
relative viability ([22]; first compound 0.8 µM): 0.342
relative viability ([22]; first compound 2.53 µM): 0.345
relative viability ([22]; first compound 8 µM): 0.339
relative viability ([23]; first compound 0.08 µM): 0.503
relative viability ([23]; first compound 0.8 µM): 0.543
relative viability ([23]; first compound 2.53 µM): 0.547
relative viability ([23]; first compound 8 µM): 0.488
